Data from a melting point compilation (Tetko et al.; mined from patent text by program, amines drawn as free bases though some values may be those of a salt).

SMILES	melting point [°C]
COc1ccc(C(=O)Cc2c(Cl)cncc2Cl)c2c1OCC2CC(=O)OCc1ccccc1 (centres undefined)	120 to 122
Cn1c(C(F)(F)F)cc(=O)n(-c2ccc(Cl)c(C=CC(=O)OCC(F)(F)F)c2)c1=O	170 to 172
Cc1c(O)cccc1C(=O)N[C@@H](Cc1ccccc1)[C@H](O)C(=O)N1CSC(C)(C)[C@H]1C(=O)N[C@@H]1CCc2ccccc21	128 to 130
CCc1ncnc(NC2CCc3cc(O)ccc3C2)c1Cl (centres undefined)	178
COc1cc2ncc(N[C@H]3CC[C@@H](O)CC3)nc2cc1OC	65 to 67
COc1ncc(F)c2n[nH]c(=S)n12	166
Cc1ccc(-c2cnn(-c3ccc(C)cc3)n2)cc1	98 to 99
CC(C)c1cccc(C(C)C)c1NC(=O)N(Cc1ccc(N(C)C)cc1)c1ccc(C(F)(F)F)cc1	129 to 130
COc1ccc2nc(C3(OC)C=CC(=NS(=O)(=O)c4ccc(C)cc4)C=C3)sc2c1 (centres undefined)	166 to 168
CC(=O)NC[C@H]1CN(c2ccc(N3CCSCC3)c(F)c2)C(=O)O1	186
Cc1c(C)c2c(c(C)c1N)CC(C)(CN1CCC(C(=O)NCC(c3ccccc3)c3ccccc3)CC1)O2 (centres undefined)	168 to 170
CC(/C=C1/C(=O)N(c2ccccc2)C1c1ccccc1)=NOCCCN1CCCCC1 (centres undefined)	120 to 122
Clc1cccc(-c2cnn(-c3ccccn3)c2)c1	110 to 111
CCCCCCCCCCCCCCC(C)C(=O)O (centres undefined)	44 to 46
O=C(Nc1ccc(-n2nc(C(F)(F)F)cc2C(F)(F)F)cc1)c1cccnc1	185 to 188
O=C(O)c1cc(SC(F)(F)F)c(-c2ccc(Cl)cc2)[nH]1	176 to 178
CCC(C(C)=CC(CNC(=O)c1nc(C)[nH]c1C)=NO)[N+](=O)[O-] (centres undefined)	140 to 141
CCCc1nc(C)n2cnnc2c1Cc1ccc(-c2ccccc2-c2nnn[nH]2)cc1	182 to 184
Cc1oc(COc2ccccc2/C=C/C=C/C#N)nc1-c1ccccc1	128 to 129
O=C1NC(=O)[C@@]2(C[C@@H](C(=O)NO)Oc3ccc(F)cc32)N1	178
COC[C@H]1CCCN1NC(=O)Nc1cccc2c1C(=O)c1c-2n[nH]c1-c1ccc(C(=O)N2CCN(C(=O)OC(C)(C)C)CC2)s1	> 300
COC(=O)c1ccccc1NC1C=CC(=O)O1 (centres undefined)	172 to 173
Clc1cccc(-c2nc(-c3ccc4c(c3)OCO4)c(-c3ccc4c(c3)OCO4)[nH]2)c1Cl	198
Cc1[nH]c2ccc(/C=C/C(=O)OCc3ccccc3)cc2c1Cn1ccnc1	120 to 122
COC1CCCC(C(=O)Nc2ccc(-n3nc(C(F)(F)F)cc3C(F)(F)F)cc2)C1 (centres undefined)	145 to 147

SMILES	melting point [°C]
O=C1NCC(Cc2ccccc2Cc2ccccc2)O1 (centres undefined)	105 to 106
CN(C)CCCNS(=O)(=O)c1cccc(N)c1	89 to 93
CCc1ccc(S(=O)(=O)n2c(CCC(=O)O)cc3cc(Cl)ccc32)cc1	130 to 133
CC(C)(C)c1cc(-c2nn(CCC#N)c3ncccc23)cc(C(C)(C)C)c1O	158 to 160
COC(=O)c1n[nH]c2nc(N3CCN(C)CC3)ccc12	230 to 231
CCOC(=O)C1=C(COCc2nnn(CCNc3ccc(S(=O)(=O)N4CCOCC4)cn3)n2)NC(C)=C(C(=O)OC)C1c1cccc(Cl)c1Cl (centres undefined)	112 to 114
O=c1[nH]c2ccc([C@H]3CC[C@H](N(CCCc4ccc(F)cc4)Cc4ccoc4)CC3)cc2o1	225 to 227
CCCN1N=C(c2ccc(OC)c(OC)c2)[C@@H]2CCCC[C@@H]2C1=O (relative stereo)	95 to 96
O=C(O)c1cnn2c(C(F)F)cc(-c3ccc(OC(F)(F)F)cc3)nc12	231
CCOC(=O)c1noc2ccccc12	53 to 55
N#CCCCCCN1CCc2c(c3cc(F)ccc3n2-c2ccc(F)cc2)C1	90 to 98
CCOCc1nc2c(N)nc3ccc(CCc4ccccc4)cc3c2n1CC(C)(C)O	175 to 176
CCC1(C(=O)C=Cc2ccc(C(=O)O)cc2)CC1	184
CCOC(=O)C=C(C)Nc1ccc2nc[nH]c2c1	160 to 162
Cc1cc(CCCCCOc2ccc(C(N)=S)cc2)on1	156 to 158
CNC(=O)NCCSCc1[nH]cnc1C	158 to 159
CCOC(=O)Cc1nn(CC2Nc3cc(C(F)(F)F)ccc3S2)c(=O)c2ccccc12 (centres undefined)	134
Cc1ccc(S(=O)(=O)OC2=C(Br)C(=O)c3ccc4c(c3C2=O)C=CC(C)(C)O4)cc1	182 to 184
Cc1cc(-c2ccncc2)n2ncc(C(=O)c3ccccc3)c2n1	209 to 210
CC(C)CCc1cc2nnc(-c3ccccc3F)n2nc1OCc1ncnn1C	103 to 105
COc1cccc(/C=C/c2ccc(C(=O)O)cc2)c1	200 to 205
Cc1ccc(C2Sc3cc(C)ccc3NC(=O)C2=O)cc1 (centres undefined)	142 to 144
CCCn1nc2c(N)nc3ccccc3c2c1CC1CCOCC1	218 to 220
CCOC(=O)C1COc2ccc(NC(C)=O)cc2O1 (centres undefined)	138 to 140
NC(Cc1coc2c(Cl)cccc12)=NO	142 to 145

SMILES	melting point [°C]
CCOC(=O)C(Cc1ccccc1)N(CC)C(=O)OC(C)(C)C (centres undefined)	58 to 61.5
Oc1ccccc1CNC1CCN(Cc2ccccc2)CC1	92.5 to 93
COc1cc(Nc2c(C#N)cnc3cc4cc(OCCN5CCOCC5)c(OC)cc4cc23)c(Cl)cc1F	206 to 222
Cc1c(C(=O)CN2CCCCC2)c(C)n(C)c1C(=O)c1ccc(Cl)cc1Cl	177 to 179
CCc1nnc(-c2ccc([N+](=O)[O-])cc2)n1-c1ccc(OC)cc1	174
CCCCOCC(=O)NNC(=O)N1Cc2ccccc2Oc2ccc(Cl)cc21	93 to 97
CCC12CCC(=O)CC1CCc1cc(O)ccc12 (centres undefined)	168 to 170
FC(F)(F)Oc1ccc(-n2cnc(-c3ccc(CBr)cc3)n2)cc1	124 to 126
COc1ccc(-c2nn3c(SC)nnc3c3ccccc23)cc1	218 to 220
OC1CSC(Oc2ccc(-n3ccnc3)cc2)C(O)C1O (centres undefined)	180
Cc1ccc(S(=O)(=O)Oc2cccc(C=O)c2)cc1	65 to 67
CC(C)c1cc2c(cc1CCSCC(=O)O)OCO2	75.5 to 76
O=C(O)Cc1cccc(-c2cccc(COC3OC(CO)C(O)C(O)C3O)c2)c1 (centres undefined)	74 to 75
C[C@@H]1CCN(C(=O)C(C)(C)C)[C@@H](C(=O)NOCc2ccccc2)C1	107 to 108
N#Cc1cc(F)cc(C#N)c1	98 to 100
CCCOc1ccc(CNc2cc(C(=O)Nc3ccccc3)ccc2OC)cc1	154 to 156
CSc1nc(=O)n(-c2ccc(Cl)c(C(=O)OC(C)C)c2)c(=O)n1C#N	55 to 56
CN1CC[C@@H](c2c(O)cc(O)c3c(=O)cc(-c4ccc(C#N)cc4Cl)oc23)[C@@H]1CO	237 to 239
CCCc1nc(C(C)(C)O)c(C(=O)OCOC(=O)C(C)(C)C)n1Cc1ccc(-c2ccccc2C(=O)OC(C)(C)C)cc1	106 to 107
CCOC(=O)c1ccc(CNC(=O)CCl)cc1O	120 to 121
CCCn1c(=O)c2[nH]c([C@@H]3CC[C@H]4CCC[C@H]43)nc2n(CCC)c1=S (relative stereo)	135 to 137
Nc1ncccc1-c1nc2cc(-c3cccnc3)cnc2n1-c1ccc(CNS(=O)(=O)C2CC2)cc1	197 to 199
O=C1c2ccccc2C(=O)c2c1oc1c2ccc2ccc(O)cc21	332
O=C1Nc2cccnc2N(C(=O)CCN2CCNCC2)c2ccccc21	280 to 282
CCOc1nn(-c2ccc(C(F)(F)F)cn2)cc1CCCOc1cccc(C(C)(C)C(=O)O)c1	131 to 132

SMILES	melting point [°C]
CCc1cc(=O)n(-c2cc(C(=O)OC(C)C)c(Cl)cc2F)c(=O)[nH]1	121 to 124
COc1cc2c(=O)n(C)c(-c3ccc(OC4CCN(C5CCC5)CC4)cc3)nc2cn1	146 to 148
Nc1cccc(S(=O)(=O)NCC(F)(F)F)c1	131
O=C(CCCCc1ccccc1)Nc1ccc2c(c1O)C(=O)CC2	119 to 121
O=C(O)C(F)(F)C(F)(F)C(F)(F)C(F)(F)C(F)(F)C(F)(F)C(=O)O	142 to 144
CC1(C)COc2ccc(C[C@H](N)[C@H](O)c3cccc(Cl)c3)cc21 (racemic)	83 to 86
CCOC(=O)c1cccc(-c2ccc3c(n2)C(Oc2ccc(Cl)cc2Cl)CC3)c1 (centres undefined)	129 to 130
CC(=O)Nc1c(C(=O)c2ccccc2)[nH]c2ccc(Cl)cc12	200 to 201
Nc1cc(C=O)nc(C2CCCO2)c1F (centres undefined)	122 to 123
CC(C)Cc1ccc(C(=O)O)cc1C#N	118
Cc1c(CCC(=O)O)ccc2c3ccccc3n(Cc3ccccc3)c12	160 to 162
COc1cc2c(cc1OC)/C(=N/OCc1ccc([N+](=O)[O-])cc1)CC2	139 to 144
CNC(=S)NS(=O)(=O)c1cc(CCNC(=O)c2cnc3ccccc3c2)ccc1OCCOCC(F)(F)F	115 to 120
Cc1cc(CCCCCCC(OS(=O)(=O)O)c2nnnn2C)on1 (centres undefined)	58 to 60
COC(=O)c1ncn(C(c2ccccc2)c2ccccc2)c1C(=O)OC	93
Nc1cc(OCc2ccccc2)cc(OCc2ccccc2)c1	77 to 80
CCCCCCc1cc(-c2ccccc2)c(OCC(=O)OC)c(-c2ccccc2)c1	87 to 89
O=C(O)c1cncn1C(c1ccccc1)C1CCCCC1 (centres undefined)	250
Cc1ncc(C(=O)N2CCC(=O)CC2)c(C)n1	116
FC(F)(F)c1cccc(-c2c[nH]c(C3CCN(c4ncnc5[nH]ncc45)CC3)n2)c1	281
CC1=NN=C(C=Cc2ccccc2F)c2cc3c(cc2C1)OCO3	138 to 141
CC(=O)NC(C(=O)NC1c2cc(C#N)ccc2OC(C)(C)C1O)c1ccccc1 (centres undefined)	133 to 145
C=CCOc1ccc2cn[nH]c2c1	110 to 112
O=C(CC1(c2ccccc2)CCC1)C(=O)Nc1ccc2c(c1)COC2=O	142 to 146
